Read-outs that look alike come from different tables or passages of the source.
Experiments:
Format in all cases: cell-based, human
MDA-MB-231 cells [1] = test: Intracellular localization of Dox by confocal live-cell imaging, MDA-MB-231; conditions: MDA-MB-231, 1% O2; Cq 10 μM, Baf 100 nM
Description: (§1) Cells were cultured in 25 mm-diameter glass coverslips (Thermo Fisher Scientific) and incubated under various conditions (as indicated in the FIG. legends). Cells were then incubated for 2 h in a medium containing Dox (2 μM). After the incubation period, cells were washed to remove excess Dox and left in drug-free media for 10 min. […] Coverslips were mounted on glass slides and placed on a 37° C. warmed stage of an Olympus Fluoview™ FV1000 (Olympus, Tokyo, Japan) confocal laser scanning microscope. Dox was excited with a green helium neon laser (543 nm) and emitted fluorescence intensity was measured. Images were acquired on the same day, typically from 10-20 cells of similar size from each experimental condition, using identical instrument settings.

MDA-MB-231 cells [2] = test: Intracellular pH measurement (HPTS/SNARF-1) by confocal microscopy, MDA-MB-231; conditions: MDA-MB-231, 1% O2, 4 h; for effect on hypoxia-induced intravesicular acidification: Baf 100 nM, Cq 10 μM
Description: (§2) The pH sensing ratiometric dyes SNARF-1 and HPTS (Life Technologies) were used simultaneously for pH measurement of both cytoplasmic (C-SNARF-1) and endosomal/lysosomal (HPTS) compartments as previously described^30. Briefly, cells were cultured in 35 mm petri dishes (BD Biosciences) and used at 50% confluence. For endocytic labeling, cells were incubated overnight with HPTS (1 mM), washed, followed by a 20-min incubation with SNARF-1 (5 μM) to label the cytoplasmic compartment. Living cells were analyzed using an Olympus Fluoview™ FV1000 confocal microscope. Fluorescence emissions of both pH-sensing probes were recorded and subsequently analyzed as described^30.

HT-1080 cells [3] = test: Intracellular pH measurement (HPTS/SNARF-1) by confocal microscopy, HT-1080; conditions: HT-1080, 1% O2, 4 h; for effect on hypoxia-induced intravesicular acidification: Baf 100 nM, Cq 10 μM
Description: as §2

HT-1080 cells [4] = test: Intracellular localization of Dox by confocal live-cell imaging, HT-1080; conditions: for effect on hypoxia-induced Dox sequestration within endosomes: HT-1080, 1% O2, Cq 10 μM, Baf 100 nM
Description: as §1

[5] = test system: HT-1080 fibrosarcoma cells; test: MTT cell viability assay, HT-1080; conditions: for Fold change: HT-1080, IC50 at 1% O2 to IC50 at 21% O2; for increase in resistance toward the drug by hypoxia: HT-1080 cells (so in the source), 1% O2 vs 21% O2; for IC50: Homo sapiens, HT-1080, 72 h
Description: (§3) Cells (5×10^3) were cultured in 96-well plates and pre-incubated under 21% O2 or 1% O2 for 4 h following the addition of drugs for 72 h. Cell viability was measured using the 3-(4,5-dimethylthiazol-2-yl)-2,5-diphenyltetrazolium bromide (MTT) dye (Life Technologies) according to manufacturer's instructions. Because hypoxic conditions may affect the reduction of MTT to formazan, incubation of all cell cultures with MTT were performed under normoxic conditions. Each experiment was performed in triplicate and at least three independent experiments were performed. Log-scale dose-response data were plotted on a graph and a three-parameter non-linear regression was applied to determine IC50 values. For calculation of the IC50s, both normoxic and hypoxic drug-treated samples were normalized with their untreated counterpart.
(§4) To assess the role of pH in hypoxia-induced resistance to anthracyclines, the human breast cancer MDA-MB-231 and fibrosarcoma HT-1080 cell lines were incubated in the presence or absence of the commonly used anthracycline drugs, doxorubicin (Dox), daunorubicin (Dau) and the anthracycline analog drug, mitoxantrone (Mtx), under hypoxic (1% O2) or normoxic (21% O2) conditions for 72 hours. Cell viability was then assessed using the MTT assay. The impact of extracellular pH on Dox uptake by HT-1080 was also assessed.

[6] = test system: MDA-MB-231 breast cancer cells; test: MTT cell viability assay, MDA-MB-231; conditions: for IC50: Homo sapiens, MDA-MB-231, 72 h; for Fold change: MDA-MB-231, IC50 at 1% O2 to IC50 at 21% O2
Description: as §3, §4

NHE6 = NHE6 localization (cell-surface biotinylation, EEA1 immunofluorescence) in HT-1080
Description: Biotinylation steps were performed at […] Cells were grown on circular 15-mm diameter glass coverslips (Thermo Fisher Scientific) and incubated at 21% or 1% O2. Cells were then washed with PBS containing 1 mM CaCl2 and 0.5 mM MgCl2 (PBSCM) and incubated for 5 min with 0.3 mg/ml of EZ-Link Sulfo-NHS-SS-Biotin (Pierce) in PBSCM. Unreacted biotin was quenched using 100 mM glycine. Cells were fixed for 10 min at room temperature using 1% PFA in PBS. Prior to staining, cells were blocked with 5% of BSA for 1 h at room temperature. Biotinylated cells were stained with 5 μg/ml Streptavidin Texas Red (Invitrogen) for 1 h at 4° C. Coverslips were washed and mounted on a microscope slide using Vectashield mounting media (Vector labs).
Cultured cells were fixed with 1% PFA for 10 min at room temperature, permeabilized with saponin (0.05% in PBS) for 20 min, and blocked with 2% BSA in PBS for 30 min. Cells were then incubated with the appropriate primary and secondary antibodies as follows: anti-EEA1 (1/500), anti-Rab7 (1/500) and fluorophore-conjugated secondary antibodies (1/1000). Images were recorded using an Olympus Fluoview™ FV1000 confocal microscope using a 63× oil immersion objective.

NHE6-RACK1 interaction = test: Co-immunoprecipitation of NHE6 with RACK1 in HT-1080; conditions: HT-1080, PDBu 100 nM
Description: Cells were lysed on ice in NP-40-containing buffer (50 mM Tris-HCl pH 8.0, 150 mM NaCl, 1% NP-40, 5 mM EDTA, phosphatase and protease inhibitors). Cell lysates were centrifuged at 13,000 rpm at 4° C. and protein concentration determined using the BCA protein assay (Thermo Fisher Scientific). After a pre-clearing step with protein A/G-agarose beads (GE Healthcare), protein complexes were immunoprecipitated overnight at 4° C. Samples were incubated in SDS-loading buffer for 30 minutes at room temperature to avoid transmembrane protein aggregates upon heating in a boiling water bath. Proteins were separated by SDS-PAGE electrophoresis, transferred to a PVDF membrane and immunoblotting was performed as described, using anti-NHE6 (1:1000), anti-NHE9 (1:1000) anti-RACK1 (1:2000), anti-tubulin (1:5000), anti-actin (1:5000) anti-HA (1:1000), anti-PKC (1:200), anti-phospho PKC substrate (1:1000), anti-LAMP2 (1:200), anti-P-glycoprotein (1:200) and HRP-conjugated secondary antibodies (1/10 000)^66.

CO/C1=C\C(C)=C\[C@@H](C)[C@@H](O)[C@@H](C)C/C(C)=C/C=C/[C@H](OC)[C@@H]([C@@H](C)[C@@H](O)[C@H](C)[C@@]2(O)C[C@@H](O)[C@H](C)[C@@H](C(C)C)O2)OC1=O [Baf, bafilomycin A1]
effect on hypoxia-induced Dox sequestration within endosomes (MDA-MB-231 cells [1]): abolished hypoxia-induced Dox sequestration within endosomes | effect on hypoxia-induced intravesicular acidification (MDA-MB-231 cells [2]): prevented | effect on hypoxia-induced intravesicular acidification (HT-1080 cells [3]): prevented | effect on hypoxia-induced Dox sequestration within endosomes (HT-1080 cells [4]): abolished hypoxia-induced Dox sequestration within endosomes

CCN(c1nc(N)c(C(=O)NC(=N)N)nc1Cl)C(C)C [EIPA]
effect on hypoxia-induced increase in cytosolic pH (MDA-MB-231 cells [2]; EIPA 25 μM): prevented | effect on hypoxia-induced increase in cytosolic pH (HT-1080 cells [3]; EIPA 25 μM): prevented

COc1cccc2c1C(=O)c1c(O)c3c(c(O)c1C2=O)C[C@@](O)(C(C)=O)C[C@@H]3O[C@H]1C[C@H](N)[C@H](O)[C@H](C)O1 [Dau, daunorubicin]
Fold change [5]: 8.1 fold | increase in resistance toward the drug by hypoxia [5]: 4.7 fold | IC50 ([5]; read-out: IC50 of anthracyclines, HT-1080, 1% O2, 72 h): 814 nM | IC50 ([5]; read-out: IC50 of anthracyclines, HT-1080, 21% O2, 72 h): 102 nM | IC50 ([6]; read-out: IC50 of anthracyclines, MDA-MB-231, 1% O2, 72 h): 921 nM | IC50 ([6]; read-out: IC50 of anthracyclines, MDA-MB-231, 21% O2, 72 h): 199 nM | Fold change [6]: 4.7 fold

CN(C)CCCn1cc(C2=C(c3c[nH]c4ccccc34)C(=O)NC2=O)c2ccccc21 [GF109203X]
hypoxia-induced NHE6 relocalization (NHE6; HT-1080, 1% O2, 4 h, GF-109203x 200 nM): blocked | endosomal/lysosomal pH under hypoxic conditions (HT-1080 cells [3]; PKC inhibition (GF-109203x 200 nM)): partial recovery of normal pH values | Dox within the nucleus (HT-1080 cells [4]; HT-1080, 1% O2, PKC inhibition (GF-109203x 200 nM)): promoted the accumulation of Dox in the nuclear compartment

CCN(CC)CCCC(C)Nc1ccnc2cc(Cl)ccc12 (centres unmarked) [Cq, chloroquine]
effect on hypoxia-induced Dox sequestration within endosomes (MDA-MB-231 cells [1]): abolished hypoxia-induced Dox sequestration within endosomes | effect on hypoxia-induced intravesicular acidification (MDA-MB-231 cells [2]): prevented | effect on hypoxia-induced intravesicular acidification (HT-1080 cells [3]): prevented | effect on hypoxia-induced Dox sequestration within endosomes (HT-1080 cells [4]): abolished hypoxia-induced Dox sequestration within endosomes

CCCC(=O)O[C@@H]1[C@@H](C)[C@@]2(O)[C@@H](C=C(CO)C[C@]3(O)C(=O)C(C)=C[C@@H]23)[C@@H]2C(C)(C)[C@]12OC(=O)CCC [PDBu, phorbol-12,13-dibutyrate]
association of NHE6 with RACK1 (NHE6-RACK1 interaction): promoted | relocalization of NHE6 from endosomes to the plasma membrane (NHE6; HT-1080, normoxia, PDBu 100 nM): promoted

O=C1c2c(O)ccc(O)c2C(=O)c2c(NCCNCCO)ccc(NCCNCCO)c21 [Mtx, mitoxantrone]
Fold change [5]: 4.9 fold | increase in resistance toward the drug by hypoxia [5]: 5.0 fold | IC50 ([5]; HT-1080, 1% O2, 72 h, read-out: IC50 of anthracyclines): 451 nM | IC50 ([5]; HT-1080, 21% O2, 72 h, read-out: IC50 of anthracyclines): 93.5 nM | IC50 ([6]; MDA-MB-231, 1% O2, 72 h, read-out: IC50 of anthracyclines): 752 nM | IC50 ([6]; MDA-MB-231, 21% O2, 72 h, read-out: IC50 of anthracyclines): 152 nM | Fold change [6]: 5.0 fold

Reference: patent US10973840B2, “Methods of sensitizing tumor cells to weak base chemotherapeutic drugs” (SOCPRA SCIENCES SANTÉ ET HUMAINES S.E.C., priority 2017, dated 2021)
